Entries after “also recorded” stand apart in the source; their conditions may differ. Counter-ions that a name gives are not always drawn.
Columns and labels:
[1] = observed side effects / behaviors after injection in neuropathic rats; type: in vivo, rat
[2] = test system: neuropathic pain (mechanical allodynia); test: mechanical allodynia (von Frey) in the rat spinal nerve ligation model of neuropathic pain; type: in vivo; settings: for effect of antagonist pretreatment on A-85380 induced anti-allodynia: A-85380 0.75 μmol/kg i.p.
Text: Under halothane anesthesia, the L5 and L6 spinal nerves were tightly ligated in the manner described previously by Chung et al. (Kim S. H., Chung J. M., An experimental model for peripheral neuropathy produced by segmental spinal nerve ligation in the rat. Pain 1992; 50:355-363.). Briefly, an incision was made on the dorsal portion of the hip, and the muscle was blunt dissected to reveal the spinal processes. The L6 transverse process was removed, and the left L5 and L6 spinal nerves were tightly ligated with 5.0 braided silk suture. The wound was cleaned, the membrane sewn with 4.0 dissolvable Vicryl suture and the skin closed with wound clips.
Implantation of the DRG catheters was performed immediately following nerve ligation, with animals maintained under halothane for the entire procedure (35-40 minutes). Catheters were constructed of PE 20 with small pieces of tygon tubing cemented along the catheter to allow for suture anchoring points during surgery. The left L5 DRG was exposed by removing the posterior articular process of the L5 vertebra. Gelfoam was inserted into the cavity to prevent the catheter from damaging the ganglion. The catheter was sutured to the muscle and fascia, then run subcutaneously to exteriorize between the shoulder blades. Saline was infused into the catheter, and it was heat sealed.
The implantation of i.c.v. cannulae were conducted under sodium pentobarbital (50 mg/kg, i.p. Nembutal) anesthesia with nerve ligation occurring just after the implantation; animals were maintained under anesthesia for the entire procedure (40-45 minutes). Animals were implanted with a 22 gauge guide cannulae (Plastics One, Roanoke Va.) cut to 6 mm. The stereotaxic coordinates from bregma were 1.0 mm posterior, 1.6 mm lateral, and 4.5 ventral (Paxinos G. and Watson C., The rat brain in stereotaxic coordinates. New York: Academic Press, 1997). Three skull screws were attached for stability, and the implant was covered with cranioplastic acrylic.
For i.c.v. (intracerebroventricular) infusion, chlorisondamine (10 μg) was dissolved in 5 μl phosphate buffered saline and infused by syringe pump at a rate of 5 μl/min. The infusion was performed 24 hours prior to testing in order to reduce stress to the animals immediately prior to behavioral testing.
For all other routes of administration including intraperotineal (i.p.), intradermal (i.d.) or onto the DRG, chlorisondamine was dissolved in saline. The final volumes for i.p. injections were 1 ml/kg, for i.d. were 50 μl and for DRG injections were 10 μl. All injections were made by hand held syringe.
For the assessment of neuropathic pain, mechanical allodynia in the affected paw of animals who had undergone spinal nerve ligation was evaluated using von Frey filaments. As described previously (Chaplan et al, Quantitative assessment of tactile allodynia in the rat paw. J Neurosci Meth, 1994; 53:55-62), two weeks following surgery, rats were acclimated to the testing box which was constructed of plexiglass with a wire mesh floor to allow access to the planter surface of the hind paws. Using the Dixons Up-Down method, a baseline level of allodynia was taken with allodynia defined as a withdrawal threshold <4 g. Test compounds were then administered and subsequent withdrawal thresholds determined.
For spinal nerve ligation experiments, the timing of antagonist administration depended upon the route of administration. With i.c.v. administration, chlorisondamine or its vehicle was given 24 hours prior to further manipulation. On the day of the experiment, a baseline allodynia score was determined and then A-85380 or its vehicle control was given and measures taken at 15, 30 and 60 minutes post agonist injection. Dose response curves for i.p., i.d. and DRG administration were also determined using this time line. […]

[3] = given systemically (i.p.); cited from earlier work
acute thermal pain [4] = test: rat paw withdrawal model of acute thermal pain, normal rats; type: in vivo; settings: chlorisondamine 0.4 μmol/kg i.p. 30 min prior, A-85380 0.75 μmol/kg i.p.
Text: For the assessment of acute pain, a paw thermal stimulator was used to evaluate nociceptive responses to an acute thermal stimulus (Anesthesiology Research Laboratory, Department of Anesthesiology, University of California at San Diego, La Jolla, Calif.). The device and behavioral procedure have been described previously (Hargreaves et al., A new and sensitive method for measuring thermal nociception in cutaneous hyperalgesia, Pain 1988, 32:77-88; Dirig et al., Characterization of variables defining hind paw withdrawal latency evoked by radiant thermal stimuli, J. Neurosci. Meth. 1997; 76:183-191). Briefly, rats were placed in Plexiglas boxes on a glass surface maintained at 30° C. and allowed to acclimate for 30 minutes. The measured nociceptive response was the latency to withdraw the hind paw when heated by light from a focused projector lamp (current set at 4.8 A). The final score was the mean of the latencies for the left and right paw. […]
(§1) For acute thermal pain experiments, a baseline withdrawal threshold was determined, and then chlorisondamine or its vehicle was administered. […]
The effect of systemically administered chlorisondamine in a model of acute thermal pain was examined. […] The effect of systemically administered chlorisondamine (0.4 μmol/kg, i.p.) on A-85380 (0.75 μmol/kg, i.p.) was assessed.

persistent pain = test: formalin model of persistent pain (phase two); type: in vivo, rat; settings: A-85380 0.75 μmol/kg i.p.
Experimental: The formalin test was used as an assessment of persistent pain. The method, described previously (Bannon et al. 1998) is briefly as follows. Following acclimation to the test environment, 50 μl of a 5% formalin solution was injected subcutaneously into the dorsal surface of one of the rear paws. Only phase two, defined as the 20 minute period from 30 to 50 minutes post formalin injection, was scored for nocifensive behaviors including flinching, licking, and biting.
For formalin experiments, chlorisondamine or its vehicle was infused either 24 h or 40-50 minutes prior to further manipulation. A-85380 was then injected and, 5 minutes later, formalin was injected into the paw. Measures were taken between 30 and 50 minutes post formalin injection.
The effect of centrally and systemically administered chlorisondamine in a model of persistent pain was examined. Using phase two of the formalin model of persistent pain, chlorisondamine (10 μg) was administered i.c.v. 24 hours prior to the systemic administration of A-85380.

acute thermal pain [5] = test: rat paw withdrawal model of acute thermal pain using neuropathic rats; type: in vivo; settings: chlorisondamine 0.4 μmol/kg i.p., A-85380 0.75 μmol/kg i.p.
Text: For the assessment of acute pain, a paw thermal stimulator was used to evaluate nociceptive responses to an acute thermal stimulus (Anesthesiology Research Laboratory, Department of Anesthesiology, University of California at San Diego, La Jolla, Calif.). The device and behavioral procedure have been described previously (Hargreaves et al., A new and sensitive method for measuring thermal nociception in cutaneous hyperalgesia, Pain 1988, 32:77-88; Dirig et al., Characterization of variables defining hind paw withdrawal latency evoked by radiant thermal stimuli, J. Neurosci. Meth. 1997; 76:183-191). Briefly, rats were placed in Plexiglas boxes on a glass surface maintained at 30° C. and allowed to acclimate for 30 minutes. The measured nociceptive response was the latency to withdraw the hind paw when heated by light from a focused projector lamp (current set at 4.8 A). The final score was the mean of the latencies for the left and right paw. To avoid tissue damage, the maximal response latency prior to automatic shutoff of the lamp was 20.5 sec.
as §1
To address this concern, neuropathic rats were assessed in the acute thermal model of paw withdrawal. […]

[6] = chlorisondamine 10 μg i.c.v. 24 hours prior

O=C(NO)c1cncc(N2C[C@H]3CNC[C@H]32)c1 [A-420503, (IR, 5S) 5-(3,6-diazabicyclo [3.2.0]hept-6-yl)-N-hydroxy-nicotinamide]
side effects ([1]; 62 μmol/kg, i.p.): without any notable side effects
anti-allodynia ([2]; 62 μmol/kg, i.p.): significant anti-allodynia
effects at the DRG after pretreatment with an NMR antagonist ([2]; DRG administration): blocked
anti-allodynia ([2]; at the DRG, equivalent to 4.77 μmol/kg i.p.): significant anti-allodynia

Cl.Cl.c1cncc(OC[C@@H]2CCN2)c1 [A-85380, 3-(2(S)-azetidinylmethoxy)pyridine dihydrochloride]
crossing of the blood brain barrier [3]: readily crosses the blood brain barrier
behaviors induced immediately following injection ([1]; 0.5-1.0 μmol/kg, i.p.): prostration and ataxia
time point by which prostration and ataxia abated ([1]; 0.5-1.0 μmol/kg, i.p.): ≤ 15 min
side effects with peripheral NNRs blocked ([1]; chlorisondamine 0.4 μmol/kg i.p. pretreatment, A-85380 at increased dose): significant increase in side effects
side effects with central NNRs blocked ([1]; chlorisondamine 10 μg i.c.v. pretreatment, A-85380 at increased dose): almost no side effects
side effects accompanying the reduction in allodynia ([1]; given systemically (i.p.), no antagonist): prostration, ataxia, bracing and dyspnea
anti-allodynia (paw withdrawal threshold) ([2]; 10 μg infused onto the L5 DRG): significant anti-allodynia
duration of anti-allodynia ([2]; 10 μg infused onto the L5 DRG): 15 min
anti-allodynia (paw withdrawal threshold) ([2]; 20 μg infused onto the L5 DRG): significant anti-allodynia
duration of anti-allodynia ([2]; 20 μg infused onto the L5 DRG): 30 min
anti-allodynia in the affected paw (paw withdrawal threshold) ([2]; 10, 20 and 50 μg/rat i.d. into plantar surface of contralateral (unaffected) paw, dihydrochloride): all three doses of A-85380 induced a significant anti-allodynia; also recorded: equivalent or greater anti-allodynia
anti-allodynia in the affected paw (paw withdrawal threshold) ([2]; 10, 20 and 50 μg/rat i.d. into plantar surface of ipsalateral (affected) paw, dihydrochloride): only the 50 μg dose of A-85380 had an anti-allodynic effect; also recorded: small but significant anti-allodynia
dose required for significant reduction in allodynia ([2]; central NNRs blocked with chlorisondamine 10 μg i.c.v.): 3 µmol/kg
reduction in allodynia with peripheral NNRs blocked ([2]; chlorisondamine 0.4 μmol/kg i.p. pretreatment, systemic A-85380): significant reduction in allodynia
reduction in allodynia with central NNRs blocked ([2]; chlorisondamine 10 μg i.c.v. pretreatment, systemic A-85380): significant reduction in allodynia
potency to increase paw withdrawal threshold, i.p. compared with i.d. administration ([2]; doses converted to equivalent systemic dose, 15 minute time point): similar
potency to increase paw withdrawal threshold, DRG administration compared with i.p. and i.d. ([2]; doses converted to equivalent systemic dose, 15 minute time point, dihydrochloride): decidedly more potent; also recorded: most potent
dose required for significant reduction in allodynia ([2]; given without an antagonist): 0.75 µmol/kg
anti-allodynia (paw withdrawal threshold) ([2]; infused directly onto the L5 DRG, different doses): dose-dependent anti-allodynic effect
dose required for significant reduction in allodynia ([2]; peripheral NNRs blocked with chlorisondamine 0.4 μmol/kg i.p.): 1.5 µmol/kg
anti-allodynia (paw withdrawal threshold) ([2]; systemically administered (i.p.), no antagonist, dihydrochloride): significant, dose-dependent decrease; also recorded: dose dependent anti-allodynia; also recorded: dose-dependent anti-allodynia

CNC1(C)C2CCC(C2)C1(C)C (stereo not drawn) [Mecamylamine, mecamylamine hydrochloride]
effect of antagonist pretreatment on prostration and ataxia following A-85380 injection ([1]; mecamylamine 1 μmol/kg i.p. 30 minutes prior to A-85380): blocked
effect of antagonist pretreatment on A-85380 induced anti-allodynia ([2]; mecamylamine 1 μmol/kg i.p. 30 minutes prior, hydrochloride): completely blocked
effect of antagonist pretreatment on A-85380 induced anti-allodynia ([2]; mecamylamine 1 μmol/kg i.p. 30 minutes prior, listed as mecamylamine, hydrochloride): full blockade

C[N+](C)(C)CC[N+]1(C)Cc2c(Cl)c(Cl)c(Cl)c(Cl)c2C1 [chlorisondamine, chlorisondamine diiodide]
effect of antagonist pretreatment on A-85380 induced antinociception (paw withdrawal latency) (acute thermal pain [4]): no effect; also recorded: completely ineffective
effect of antagonist pretreatment on A-85380 induced analgesia (flinches, phase two) (persistent pain; chlorisondamine 0.4 μmol/kg i.p. 40-50 minutes prior to formalin): no significant attenuation; also recorded: no significant effect
effect of antagonist pretreatment on A-85380 induced analgesia (flinches, phase two) (persistent pain; [6]): completely blocked
effect of antagonist pretreatment on A-85380 induced anti-allodynia ([2]; chlorisondamine 0.4 μmol/kg i.p. 30 minutes prior): completely blocked
effect of antagonist pretreatment on anti-allodynia induced by A-85380 infused onto the DRG ([2]; chlorisondamine 0.4 μmol/kg i.p. 30 minutes prior, A-85380 20 μg onto DRG): completely blocked
effect of antagonist pretreatment on A-85380 induced anti-allodynia [2, 6]: completely blocked
effect of antagonist pretreatment on A-85380 induced antinociception (paw withdrawal latency) (acute thermal pain [5]): did not alter; also recorded: does not alter

C[N+](C)(C)CCCCCC[N+](C)(C)C [Hexamethonium, hexamethonium]
effect of antagonist pretreatment on A-85380 induced anti-allodynia ([2]; hexamethonium 19 μmol/kg i.p. 30 minutes prior): blocked
